Source: patent US20150342908A1, “SECOAPORPHINE ALKALOID DERIVATIVE FOR ACTIVATING AMP-DEPENDENT PROTEIN KINASE” (ZIH YUAN TANG Biotechnology Co., Ltd, priority 2014, published 2015)

Test system: AMPK
Assay: AMPK phosphorylation (Thr172) western blot in C2C12 myocytes
Assay type: cell-based, mouse
Description: C2C12 skeletal myoblast cell line was purchased from the Food Industry Research and Development Institute (Hsinchu, Taiwan). The C2C12 cell line was a cell line obtained from culturing the leg skeletal muscle of adult C3H mice in a cell incubator under […], 5% CO2, and 37° C. The cells were cultured in a DMEM medium (Gibco/Invitrogen, Carlsbad, Calif.) containing 4.5 mg/mL glucose, 10% fetal bovine serum (FBS; Gibco/Invitrogen, Carlsbad, Calif.), and an antibiotic solution (with final concentrations of penicillin=100 IU/mL and streptomycin=100 μg/mL). When the C2C12 myoblast cells have proliferated to cover seven-tenths of the area in the petri dish, the fetal bovine serum was replaced by 2% horse serum (Gibco/Invitrogen, Carlsbad, Calif.) so as to induce the C2C12 myoblast cells to become the multi-nuclei myocytes. The C2C12 myoblast cells differentiated into myocytes in 4 days, and the culture medium of the cells was replaced with no-serum DMEM 24 hours before the experiments so as to reduce metabolism of the cells. The C2C12 myocytes were treated respectively with 1 μM, 3 μM and 10 μM N-allylsecoboldine for 5 and 15 minutes. Then the C2C12 myocytes were rinsed with PBS buffer solution, and RIPA buffer solution containing protease inhibitors (20 mM Tris-HCl (pH 7.4), 100 mM NaCl, 1 mM EDTA, 1 mM EGTA, 0.1% SDS, 0.5% sodium deoxycholate, 1% NP-40, and 100× protease inhibitor cocktail) was added into the cells. The cells were collected and centrifuged on ice. Then, the concentrations of the supernatant samples were adjusted to be the same. The supernatant samples were put through vertical electrophoresis isolation with 8% SDS-PAGE, and the isolated proteins were transferred onto a PVDF blotting membrane. After blotting was completed, the PVDF blotting membrane was removed and blocked for 1 hour under room temperature with a blocking buffer of TBST (Tris-buffered saline with Tween-20) with 5% non-fat milk. Then, the PVDF blotting membrane was placed into a 5% BSA and TBST solution containing the primary monoclonal antibodies Phospho-AMPKα (Thr172) (Cell Signaling) (1:1000) and AMPKα (Thr172) (Cell Signaling) (1:1000), respectively, and the primary immunoblotting reaction was performed under 4° C. Then, the PVDF blotting membrane was rinsed 3 times with TBST, and a TBST solution containing the secondary antibody goat anti-rabbit IgG (Perkin Elmer) (1:10000) was added to perform the secondary reaction for one hour under room temperature. Finally, the membrane was rinsed 3 times with TBST before ECL (enhanced chemiluminescence) was added to present color.

**Q.** With `C=CCN(C)CCc1cc(O)c(OC)c2c1ccc1cc(O)c(OC)cc12` [N-allylsecoboldine] as the compound, how does the “AMPK phosphorylation, times of that in the control cells” value (shortened to “AMPK phosphorylation, times of that”) (3 μM, 5 minutes) read?
**A.** 2.34 times

**Q.** What about the “AMPK phosphorylation, times of that” value (3 μM, 15 minutes) of the same compound?
**A.** 1.38 times

**Q.** What about the “AMPK phosphorylation, times of that” value (10 μM, 5 minutes) of the same compound?
**A.** 2.51 times

**Q.** And the “AMPK phosphorylation, times of that” value (10 μM, 15 minutes)?
**A.** 2.79 times

**Q.** What about the “effect in AMPK activation (in words)” value (C2C12 cells, overall conclusion) of the same compound?
**A.** excellent effect in AMPK activation
